This passage reports IC50 results from patent US20080161269A1, “Compounds 620” (ASTRAZENECA AB, priority 2006, published 2008).

Where a name gives a salt, the structure may show the parent alone.

human β-Secretase, sequence (P56817 22-460): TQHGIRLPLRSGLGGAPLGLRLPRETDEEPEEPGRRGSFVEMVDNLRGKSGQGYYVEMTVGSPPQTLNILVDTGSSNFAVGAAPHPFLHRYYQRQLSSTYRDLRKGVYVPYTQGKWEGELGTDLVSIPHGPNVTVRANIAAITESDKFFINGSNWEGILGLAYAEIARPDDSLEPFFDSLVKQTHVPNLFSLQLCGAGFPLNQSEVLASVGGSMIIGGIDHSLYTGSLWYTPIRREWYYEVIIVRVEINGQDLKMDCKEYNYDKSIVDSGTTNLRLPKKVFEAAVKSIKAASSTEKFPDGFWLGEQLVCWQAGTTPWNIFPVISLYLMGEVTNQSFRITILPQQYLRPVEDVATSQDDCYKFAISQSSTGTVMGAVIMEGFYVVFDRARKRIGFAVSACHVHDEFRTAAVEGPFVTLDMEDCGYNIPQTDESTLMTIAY

For this experiment, the target named is human β-Secretase (Homo sapiens, UniProt P56817). Kind of experiment: TR-FRET assay. The format is biochemical. The conditions noted are these: enzyme (truncated form) 0.3 nM; substrate (Europium)CEVNLDAEFK(Qsy7) 100 nM; pH4.5; 15 minutes at room temperature. How it is done: The enzyme used in the IGEN Cleavage-, Fluorescent-, TR-FRET- and the BiaCore assay is described as follows:
The gene was fused to the Fc domain of IgG1 (affinity tag) and stably cloned into HEK 293 cells. Purified sBACE-Fc is stored in Tris buffer, pH 9.2 and has a purity of 95%.
Dilute the enzyme (truncated form) to 6 μg/mL (stock 1.3 mg/mL) and the substrate (Europium)CEVNLDAEFK(Qsy7) to 200 nM (stock 60 μM) in reaction buffer (NaAcetate, chaps, triton x-100, EDTA pH4.5). The Biomek FX is used for all liquid handling and the enzyme and substrate solutions are kept on ice until they are placed in Biomek FX. Enzyme (9 μl) is added to the plate then 1 μl of compound in dimethylsulphoxide is added, mixed and pre-incubated for 10 minutes. Substrate (10 μl) is then added, mixed and the reaction proceeds in the dark for 15 minutes at room temperature. The reaction is stopped with the addition of Stop solution (7 μl, NaAcetate pH 9). The fluorescence of the product is measured on a Wallac Victor II plate reader with an excitation wavelength of 340 nm and an emission wavelength of 615 nm. The assay is done in a Costar 384 well round bottom, low volume, non-binding surface (Corning #3676). The final concentration of the enzyme is 0.3 nM; the final concentration of substrate is 100 nM (Km of ˜250 nM). The dimethylsulphoxide control defines the 100% activity level and 0% activity is defined by exclusion of the enzyme, only using reaction buffer instead.
On the technique in general: In TR-FRET formats the signal depends on donor and acceptor labels being close together.
Turning to `CN1C(=O)C(c2ccc([Si](C)(C)C)cc2)(c2cccc(-c3cncnc3)c2)N=C1N` (racemic) [Example 14, 2-Amino-3-methyl-5-(3-pyrimidin-5-ylphenyl)-5-[4-(trimethylsilyl)phenyl]-3,5-dihydro-4H-imidazol-4-one], the IC50 (usually the concentration that inhibits the measured activity by half) was 107 nM. This lies in the sub-micromolar range.
Compound `CN1C(=O)C(c2ccc([Si](C)(C)C)cc2)(c2cccc(-c3cncnc3)c2)N=C1N` (single isomer, unassigned) [Example 15 (isomer 1), 2-amino-3-methyl-5-(3-pyrimidin-5-ylphenyl)-5-[4-(trimethylsilyl)phenyl]-3,5-dihydro-4H-imidazol-4-one] returned an IC50 of 41 nM.
For `CN1C(=O)C(c2ccc([Si](C)(C)C)cc2)(c2cccc(-c3cncnc3)c2)N=C1N` (single isomer, unassigned) [Example 15 (isomer 2), 2-amino-3-methyl-5-(3-pyrimidin-5-ylphenyl)-5-[4-(trimethylsilyl)phenyl]-3,5-dihydro-4H-imidazol-4-one], the IC50 is greater than 10000 nM.
Then `COc1cccc(-c2cccc(C3(c4ccc([Si](C)(C)C)cc4)N=C(N)N(C)C3=O)c2)c1` (stereo not shown) [Example 12, 2-Amino-5-(3′-methoxybiphenyl-3-yl)-3-methyl-5-[4-(trimethylsilyl)phenyl]-3,5-dihydro-4H-imidazol-4-one], with 84 nM.
The figure for `CN1C(=O)C(c2ccc([Si](C)(C)C)cc2)(c2cccc(-c3cccnc3F)c2)N=C1N` (stereo not shown) [Example 13, 2-Amino-5-[3-(2-fluoropyridin-3-yl)phenyl]-3-methyl-5-[4-(trimethylsilyl)phenyl]-3,5-dihydro-4H-imidazol-4-one] is 81 nM; for `COc1cncc(-c2cccc(C3(c4ccc([Si](C)(C)C)cc4)N=C(N)N(C)C3=O)c2)c1` (stereo not shown) [Example 16, 2-amino-5-[3-(5-methoxypyridin-3-yl)phenyl]-3-methyl-5-(4-trimethylsilylphenyl)imidazol-4-one acetic acid salt] it is 23 nM.
Compound `CN1C(=O)C(c2ccc([Si](C)(C)C)cc2)(c2cccc(-c3cccnc3)c2)N=C1N` (stereo not shown) [Example 17, 2-amino-3-methyl-5-(3-pyridin-3-ylphenyl)-5-(4-trimethylsilylphenyl)imidazol-4-one acetic acid salt] yielded an IC50 of 118 nM.
Then `CN1C(=O)C(c2ccc([Si](C)(C)C)cc2)(c2cccc(-c3cncc(F)c3)c2)N=C1N` (stereo not shown) [Example 18, 2-amino-5-[3-(5-fluoropyridin-3-yl)phenyl]-3-methyl-5-(4-trimethylsilylphenyl)imidazol-4-one acetic acid salt], with 180 nM.
The compound `CN1C(=O)C(c2ccc([Si](C)(C)C)cc2)(c2cccc(-c3cncc(C#N)c3)c2)N=C1N` (stereo not shown) [Example 19, 5-[3-[2-amino-1-methyl-5-oxo-4-(4-trimethylsilylphenyl)imidazol-4-yl]phenyl]pyridine-3-carbonitrile acetic acid salt] displayed an IC50 of 118 nM.
For the compound `CN1C(=O)C(c2ccc([Si](C)(C)C)cc2)(c2cccc(-c3ccc(F)nc3)c2)N=C1N` (stereo not shown) [Example 20, 2-amino-5-[3-(6-fluoropyridin-3-yl)phenyl]-3-methyl-5-(4-trimethylsilylphenyl)imidazol-4-one Acetic Acid Salt], half-maximal inhibition (IC50) required 437 nM.
For `CN1C(=O)C(c2ccc([Si](C)(C)C)cc2)(c2cccc(-c3cnccc3C#N)c2)N=C1N` (stereo not shown) [Example 21, 3-[3-[2-amino-1-methyl-5-oxo-4-(4-trimethylsilylphenyl)imidazol-4-yl]phenyl]pyridine-4-carbonitrile Acetic Acid Salt], it took 460 nM to reach half-maximal inhibition (IC50).
Then `CN1C(=O)C(c2ccc([Si](C)(C)C)cc2)(c2cccc(-c3cnn(C)c3)c2)N=C1N` (stereo not shown) [Example 22, 2-amino-3-methyl-5-[3-(1-methylpyrazol-4-yl)phenyl]-5-(4-trimethylsilylphenyl)imidazol-4-one Acetic Acid Salt], with 2740 nM; and `Cc1ncc(-c2cccc(C3(c4ccc([Si](C)(C)C)cc4)N=C(N)N(C)C3=O)c2)cn1` (stereo not shown) [Example 23, 2-amino-3-methyl-5-[3-(2-methylpyrimidin-5-yl)phenyl]-5-(4-trimethylsilylphenyl)imidazol-4-one acetic acid salt], with 2260 nM.
Take `CN1C(=O)C(c2ccc([Si](C)(C)C)cc2)(c2cccc(-c3cnccn3)c2)N=C1N` (stereo not shown) [Example 24, 2-amino-3-methyl-5-(3-pyrazin-2-ylphenyl)-5-(4-trimethylsilylphenyl)imidazol-4-one]: the IC50 came to 80 nM.
The figure for `CN1C(=O)C(c2ccc([Si](C)(C)C)cc2)(c2cccc(-c3cnc(F)nc3)c2)N=C1N` (stereo not shown) [Example 25, 2-amino-5-[3-(2-fluoropyrimidin-5-yl)phenyl]-3-methyl-5-(4-trimethylsilylphenyl)imidazol-4-one] is 460 nM; for `CN1C(=O)C(c2cccc(-c3cncnc3)c2)(c2cccc([Si](C)(C)C)c2)N=C1N` (stereo not shown) [Example 26, 2-amino-1-methyl-4-(3-(pyrimidin-5-yl)phenyl)-4-(3-(trimethylsilyl)phenyl)-1H-imidazol-5(4H)-one] it is 135 nM.
The figure for `CN1C(=O)C(c2cccc(-c3cncc(Cl)c3)c2)(c2cccc([Si](C)(C)C)c2)N=C1N` (stereo not shown) [Example 27, 2-amino-4-(3-(5-chloropyridin-3-yl)phenyl)-1-methyl-4-(3-(trimethylsilyl)phenyl)-1H-imidazol-5(4H)-one] is 163 nM; for `CN1C(=O)C(c2cccc(-c3ccc(F)nc3)c2)(c2cccc([Si](C)(C)C)c2)N=C1N` (stereo not shown) [Example 28, 2-amino-4-(3-(6-fluoropyridin-3-yl)phenyl)-1-methyl-4-(3-(trimethylsilyl)phenyl)-1H-imidazol-5(4H)-one] it is 278 nM.
With `CN1C(=O)C(c2cccc(-c3cccnc3)c2)(c2cccc([Si](C)(C)C)c2)N=C1N` (stereo not shown) [Example 29, 2-amino-1-methyl-4-(3-(pyridin-3-yl)phenyl)-4-(3-(trimethylsilyl)phenyl)-1H-imidazol-5(4H)-one], 202 nM corresponded to half-maximal inhibition (IC50).
`CN1C(=O)C(c2cccc(-c3cccnc3F)c2)(c2cccc([Si](C)(C)C)c2)N=C1N` (stereo not shown) [Example 30, 2-amino-4-(3-(2-fluoropyridin-3-yl)phenyl)-1-methyl-4-(3-(trimethylsilyl)phenyl)-1H-imidazol-5(4H)-one] registered a half-inhibitory concentration (IC50) of 182 nM. The IC50 values of the last two compounds are within 1.5-fold of each other.
Then `COc1cccc(-c2cccc(C3(c4cccc([Si](C)(C)C)c4)N=C(N)N(C)C3=O)c2)n1` (stereo not shown) [Example 31, 2-amino-4-(3-(6-methoxypyridin-2-yl)phenyl)-1-methyl-4-(3-(trimethylsilyl)phenyl)-1H-imidazol-5(4H)-one], with 1530 nM; and `CN1C(=O)C(c2cccc(-c3cnccn3)c2)(c2cccc([Si](C)(C)C)c2)N=C1N` (stereo not shown) [Example 32, 2-amino-1-methyl-4-(3-(pyrazin-2-yl)phenyl)-4-(3-(trimethylsilyl)phenyl)-1H-imidazol-5(4H)-one], with 86 nM.
